Where “and” joins values, the source holds several entries; their conditions need not be identical. Identical values can stand only once.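 Protocol summary: plate cells (96-well), add compound at 5 concentrations, incubate 48 h, interpolate endpoints linearly. GI50: concentration for 50% inhibition of growth. TGI: total growth inhibition.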
Key:
Test in all cases: DTP human tumour cell line panel, 48 h
A549 NSCLC = test system: A549 NSCLC
HOP-92 NSCLC = test system: HOP-92 NSCLC
HT29 colon = test system: HT29 colon
M14 melanoma = test system: M14 melanoma
MALME-3M melanoma = test system: MALME-3M melanoma
OVCAR-4 ovarian = test system: OVCAR-4 ovarian
OVCAR-5 ovarian = test system: OVCAR-5 ovarian
OVCAR-8 ovarian = test system: OVCAR-8 ovarian
SN12C renal = test system: SN12C renal
T-47D breast = test system: T-47D breast

Row | Compound | TGI (A549 NSCLC) | TGI (HOP-92 NSCLC) | TGI (HT29 colon) | TGI (M14 melanoma) | TGI (MALME-3M melanoma) | TGI (OVCAR-4 ovarian) | TGI (OVCAR-5 ovarian) | TGI (OVCAR-8 ovarian) | TGI (SN12C renal) | GI50 (A549 NSCLC) | GI50 (HOP-92 NSCLC) | GI50 (HT29 colon) | GI50 (M14 melanoma) | GI50 (OVCAR-5 ovarian) | GI50 (OVCAR-8 ovarian) | GI50 (SN12C renal) | GI50 (T-47D breast) | TGI (T-47D breast) | GI50 (MALME-3M melanoma) | GI50 (OVCAR-4 ovarian)
1 | COC(=O)C1=C(C)N(NC(N)=O)C2(N)N(NC(N)=O)C(C)=C(C(=O)OC)C12C(=O)OC (centres undefined) | > 100 µM | > 100 µM | > 100 µM | > 100 µM | > 100 µM | > 100 µM | > 100 µM | > 100 µM | > 100 µM |  |  |  |  |  |  |  |  |  |  | 
2 | Nc1ccccc1C#C/C=C\C#Cc1ccccc1C(F)(F)F | 15.5 µM | 48 µM | > 100 µM | 9.74 µM |  |  | 10.8 µM | 20.6 µM | 9.45 µM | 0.722 µM | 21.5 µM | 3.58 µM | 0.422 µM | 1.15 µM | 1.32 µM | 0.399 µM | 19.4 µM | 61.2 µM |  | 
3 | CCCN(CCCCC(NC(C)=O)C(=O)NCc1ccccc1)C(=O)NCCCl (centres undefined) | > 100 µM | > 100 µM | > 100 µM | > 100 µM | > 100 µM | > 100 µM |  | > 100 µM | > 100 µM |  |  |  |  |  |  |  |  |  |  | 
4 | CC(C)C(=O)/C=C/c1ccccc1 | > 100 µM | > 100 µM | > 100 µM | > 100 µM |  | > 100 µM | > 100 µM |  | > 100 µM |  |  |  |  |  |  |  |  |  |  | 
5 | O=C1NC(=S)NC(=O)C1=Cc1cc2c(cc1[N+](=O)[O-])OCO2 | > 100 µM |  |  | > 100 µM | > 100 µM | > 100 µM |  | > 100 µM | > 100 µM |  |  |  |  |  |  |  |  |  |  | 
6 | Cc1ccccc1-c1c(N)nc(NC#N)nc1C(=O)Nc1ccccc1 | > 100 µM | > 100 µM | > 100 µM | > 100 µM | > 100 µM | > 100 µM | > 100 µM |  | > 100 µM |  |  |  |  |  |  |  |  |  |  | 
7 | C[C@@H]1C=C(CCCCCCCCCCC[C@H](O)[C@@H]2CCC(=O)O2)C(=O)O1 | > 100 µM |  | > 100 µM | 87.9 µM | 46.6 µM | > 100 µM |  | 69 µM | 82.8 µM | 38.1 µM |  | 42.4 µM | 25.1 µM |  | 23.4 µM | 25.3 µM | 32.7 µM | 65.2 µM | 19.1 µM | > 100 µM
8 | O=c1cccc(C#CC#C[C@H]2O[C@@H]2CO)o1 | 3.64 µM | 0.531 µM |  |  |  |  | 3.57 µM | 1.43 µM | 0.333 µM | 1.77 µM | 0.285 µM |  | 1.23 µM | 1.73 µM | 0.341 µM | 0.149 µM | 0.401 µM | 1.47 µM |  | 
9 | OC1(C(O)(c2ccc(-c3ccccc3)cc2)c2ccc(-c3ccccc3)cc2)CCCCC1 | > 100 µM | > 100 µM | > 100 µM | > 100 µM |  | > 100 µM | > 100 µM | > 100 µM | > 100 µM |  |  |  |  |  |  |  |  | > 100 µM |  | 
10 | O=C(O)C(=Cc1ccnc2ccccc12)C(=O)O | > 100 µM | > 100 µM | > 100 µM | > 100 µM | > 100 µM |  | > 100 µM | > 100 µM | > 100 µM |  |  |  |  |  |  |  |  | > 100 µM |  | 
11 | CC(C)N(C(=O)C12C3C4C5(C#N)C3C1(I)C5C42I)C(C)C (centres undefined) | > 100 µM | > 100 µM | > 100 µM | > 100 µM | > 100 µM | > 77.4 µM | > 100 µM | > 100 µM | > 100 µM |  |  |  |  |  |  |  |  |  |  | 
12 | COC(=O)C1CC(C(=O)OC)c2nc3cc(C)ccc3nc21 (centres undefined) | > 100 µM | > 100 µM | > 100 µM | > 100 µM | > 100 µM | > 100 µM | > 100 µM | > 100 µM | > 100 µM |  |  |  |  |  |  |  |  |  |  | 
13 | CCOc1ccc(N=Cc2cccc3cccnc23)cc1 | > 100 µM | > 100 µM | > 100 µM | > 100 µM | > 100 µM | > 100 µM | > 100 µM | > 100 µM | > 100 µM |  |  |  |  |  |  |  |  |  |  | 
14 | COC(=O)C(CCS(=O)(=O)CC(=O)C(=O)Nc1cccc(C(C)=O)c1)C(=O)OC | > 100 µM | > 100 µM | > 100 µM | > 100 µM | > 100 µM | > 100 µM | > 100 µM | > 100 µM | > 100 µM |  |  |  |  |  |  |  |  |  |  | 
15 | CC(=O)Nc1ccc(C(=O)N2N=C(C)/C(=C/c3ccccc3O)C2=O)cc1 | > 100 µM |  | > 100 µM | > 100 µM | > 100 µM | > 100 µM | > 100 µM | > 100 µM | > 100 µM |  |  |  |  |  |  |  |  |  |  | 
16 | O=C(O)CNc1c2ccccc2nc2ccccc12 | > 100 µM | > 100 µM | > 100 µM | > 100 µM | > 100 µM | > 100 µM | > 100 µM | > 100 µM | > 100 µM |  |  |  |  |  |  |  |  |  |  | 
17 | N#CC(NNC(=O)c1ccccc1O)c1ccc(O)cc1 (centres undefined) | > 100 µM | > 100 µM | > 100 µM | > 100 µM | > 100 µM | > 100 µM | > 100 µM | > 100 µM | > 100 µM |  |  |  |  |  |  |  |  |  |  | 
18 | COc1ccc2[nH]c(-c3ccccn3)cc(=O)c2c1 | > 100 µM | > 100 µM | > 100 µM | 90.9 µM | 75.6 µM | > 100 µM | > 100 µM | > 100 µM | > 100 µM |  |  |  |  |  |  |  |  |  |  | 
19 | O=C1c2cccc3cc([N+](=O)[O-])cc(c23)C(=O)N1CCNCCNCCNCCN1C(=O)c2cccc3cc([N+](=O)[O-])cc(c23)C1=O | 0.287 µM and 0.196 µM | 0.112 µM |  | 0.161 µM | 0.297 µM | 0.0473 µM and 0.415 µM | 0.326 µM | 0.512 µM | 2.77 µM and 2.65 µM |  |  |  |  |  |  | 0.0367 µM |  |  |  | < 0.001 µM
20 | CCN1C2=NC(=O)N(C)C(=O)C2(Cl)C(C(SC)S(=O)(=O)c2ccc(C)cc2)c2ccccc21 (centres undefined) | > 100 µM | 71.3 µM | > 100 µM | 52.5 µM | > 100 µM | 58.9 µM | > 100 µM | 50.4 µM | > 100 µM |  |  |  |  |  |  |  |  |  |  | 
21 | O=S(=O)([O-])c1cccc2cccc(N=Cc3ccccc3[O-])c12.O=S(=O)([O-])c1cccc2cccc(N=Cc3ccccc3[O-])c12.[O]=[U]=[O] | > 100 µM | 89.6 µM | > 100 µM | > 100 µM | > 100 µM | > 100 µM | > 100 µM | > 100 µM | > 100 µM | 44.4 µM | 30.1 µM | 58 µM | 43 µM | > 100 µM | 38.5 µM | > 100 µM |  |  | > 100 µM | 41.6 µM

Source: PubChem BioAssay (NCI)
